Paper PMC8474116, “Discovery of Novel Acetamide-Based Heme Oxygenase-1 Inhibitors with Potent In Vitro Antiproliferative Activity” (Journal of Medicinal Chemistry, 2021)

Columns and labels:
HO-1 [1] = target: T1, HO-1 (Rattus norvegicus, UniProt P06762); experiment: HO-1 enzymatic activity, rat spleen microsomal fraction (bilirubin formation); format: biochemical
T1 construct: selected to use the most native (i.e., closest to in vivo) forms of HO-1 and HO-2; from tissue; host or cells: rat spleen (male Sprague-Dawley), microsomal fraction
T1 sequence (P06762 1-289): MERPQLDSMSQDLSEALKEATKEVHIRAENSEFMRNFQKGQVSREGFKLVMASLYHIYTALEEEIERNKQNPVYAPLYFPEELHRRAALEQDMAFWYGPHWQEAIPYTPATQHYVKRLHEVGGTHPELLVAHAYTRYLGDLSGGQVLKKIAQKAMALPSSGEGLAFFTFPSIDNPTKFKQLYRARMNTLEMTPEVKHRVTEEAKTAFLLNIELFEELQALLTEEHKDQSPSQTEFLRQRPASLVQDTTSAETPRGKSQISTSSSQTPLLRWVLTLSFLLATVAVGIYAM
Procedure: (§1) HO-1 and HO-2 were obtained, respectively, from the rat spleen and brain as the microsomal fraction prepared by differential centrifugation; the dominance of HO-1 protein in the rat spleen and HO-2 in the rat brain has been well documented.[24] These particular microsomal preparations were selected to use the most native (i.e., closest to in vivo) forms of HO-1 and HO-2. Spleen and brain (Sprague-Dawley rats) microsomal fractions were prepared according to the procedure outlined by Ryter et al.[2] The experiments reported in the present paper complied with the current Italian law and met the guidelines of the Institutional Animal Care and Use Committee of the Ministry of Health (Directorate General for Animal Health and Veterinary Medicines, Italy) “Dosing of enzymatic activities in rat microsomes” (2018–2022), project code 02769.N.VLY. The experiments were performed in male Sprague-Dawley albino rats (150 g body weight and age 45 d). They had free access to water and were kept at room temperature with a natural photoperiod (12 h light–12 h dark cycle). For measuring HO-1 and HO-2 activities, each rat was sacrificed and their spleen and brain were excised and weighed. A homogenate (15%, w/v) of spleens and brains pooled from four rats was prepared in ice-cold HO-homogenizing buffer (50 mM Tris buffer, pH 7.4, containing 0.25 M sucrose) using a Potter–Elvehjem homogenizing system with a Teflon pestle. The microsomal fraction of rat spleen and brain homogenate was obtained by centrifugation at 10 000g for 20 min at 4 °C, followed by centrifugation of the supernatant at 100 000g for 60 min at 4 °C. The 100 000g pellet (microsomes) was resuspended in 100 mM of potassium phosphate buffer, pH 7.8, containing 2 mM MgCl2 with a Potter–Elvehjem homogenizing system. The rat spleen and brain microsomal fractions were divided into equal aliquots, placed into microcentrifuge tubes, and stored at −80 °C for up to 2 months.
(§2) Liver cytosol has been used as a source of biliverdin reductase. Rat liver was perfused through the hepatic portal vein with cold 0.9% NaCl; then, it was cut and flushed with 2 × 20 mL of ice-cold PBS to remove all of the blood. Liver tissue was homogenized in 3 volumes of a solution containing 1.15% KCl w/v and Tris buffer 20 mM, pH 7.8 on ice. Homogenates were centrifuged at 10 000g for 20 min at 4 °C. The supernatant was decanted and centrifuged at 100 000g for 1 h at 4 °C to sediment the microsomes. The 100 000g supernatant was saved and then stored in small amounts at −80 °C after its protein concentration was measured.
(§3) The HO-1 and HO-2 activities were determined by measuring the bilirubin formation using the difference in absorbance at 464–530 nm, as described by Ryter et al.[2] Reaction mixtures (500 μL) consisted of 20 mM of Tris–HCl, pH 7.4, (1 mg/mL) microsomal extract, 0.5–2 mg/mL of biliverdin reductase, 1 mM of NADPH, 2 mM of glucose 6-phosphate (G6P), 1 U of G6P dehydrogenase, 25 μM of hemin, and 10 μL of DMSO (or the same volume of DMSO solution of test compounds to a final concentration of 100, 10, and 1 μM). Incubations were carried out for 60 min at 37 °C in a circulating water bath in the dark. Reactions were stopped by adding the same volume of chloroform. After recovering the chloroform phase, the amount of bilirubin formed was measured with a double-beam spectrophotometer as OD464–530 nm (extinction coefficient, 40 mM/cm^–1 for bilirubin). One unit of the enzyme was defined as the amount of enzyme catalyzing the formation of 1 nmol of bilirubin/mg protein/h.

HO-2 = target: T2, HO-2 (Rattus norvegicus, UniProt P23711); experiment: HO-2 enzymatic activity, rat brain microsomal fraction (bilirubin formation); format: biochemical; conditions: mean of triplicate ± SD
T2 construct: selected to use the most native (i.e., closest to in vivo) forms of HO-1 and HO-2; from tissue; host or cells: rat brain (male Sprague-Dawley), microsomal fraction
T2 sequence (P23711 1-315): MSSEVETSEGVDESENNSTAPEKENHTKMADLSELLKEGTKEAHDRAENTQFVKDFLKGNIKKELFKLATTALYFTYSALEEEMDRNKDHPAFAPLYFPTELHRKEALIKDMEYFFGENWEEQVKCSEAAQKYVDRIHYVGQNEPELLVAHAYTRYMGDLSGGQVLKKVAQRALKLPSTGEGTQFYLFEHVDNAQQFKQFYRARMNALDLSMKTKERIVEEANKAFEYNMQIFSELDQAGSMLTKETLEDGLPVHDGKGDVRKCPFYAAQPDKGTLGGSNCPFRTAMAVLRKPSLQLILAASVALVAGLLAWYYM
Procedure: as §1, §2, §3

A172 cells = experiment: MTT cell viability assay, A172; format: cell-based, human; conditions: 48 h, all tested concentrations (1, 10, 50 μM)
Procedure: Experiments were performed on human GBM cell lines U87MG (ATCCC number #HTB-14) and A172 (ATCCC #CRL-1620) on DU145 (ATCC HTB-81) and human lung adenocarcinoma A549 (ATCC CCL-185-LUC2). All cell lines were obtained from the American Type Culture Collection (ATCC, Rockville, MD). Cells were grown in Dulbecco’s modified Eagle’s medium (DMEM) supplemented with 10% of heat-inactivated fetal bovine serum (FBS), 100 U/mL of penicillin, and 100 μg/mL of streptomycin (Sigma-Aldrich, Steinheim, Germany). Cells were incubated at 37 °C in a humidified atmosphere with 5% CO2.
The effect of selected compounds 7i and 7l–p on cell viability was assessed by performing an MTT assay. Cells were seeded into 96-well plates at a density of 7 × 10^3 cells/well in 100 μL of culture medium. After 24 h, cells were treated with selected compounds at three different concentrations (1 μM, 10 μM, and 50 μM) for 48 h. Following treatments, 0.5 mg/mL of 3-[4,5-dimethylthiazol-2-yl]-2,5-diphenyltetrazolium bromide (MTT) (Sigma-Aldrich) was added to each well and incubated for 4 h at 37 °C. Finally, dimethyl-sulfoxide (DMSO) was used to dissolve formazan salts, and absorbance was measured at 570 nm in a microplate reader (Biotek Synergy-HT). Eight replicate wells were used for each group.

HO-1 [2] = experiment: HO-1 protein expression by Western blot, A172; format: cell-based, human; conditions: A172, 10 μM, 48 h
Procedure: (§4) Proteins were extracted from total cell lysate, as previously described.[61] Briefly, cell lines were added to a buffer containing 20 mM Tris (pH 7.4), 2 mM EDTA, 0.5 mM EGTA, 50 mM mercaptoethanol, and […] sucrose supplemented with phosphatase and protease inhibitor cocktails (Roche Diagnostics, Monza, Italy). Subsequently, protein samples were sonicated twice for 20′ by using an ultrasonic probe, followed by centrifugation at 10 000g for 10 min at 4 °C. Sample proteins (30 μg) were diluted in 4X NuPage LDS sample buffer (Invitrogen, NP0007), heated at 80 °C for 5 min, and then separated on a Biorad Criterion XT 4–15% Bis–Tris gel (BIO-RAD) by electrophoresis and then transferred to a PVDF membrane (BIO-RAD). Blots were blocked using the Odyssey Blocking Buffer (LI-COR Biosciences) and probed with appropriate antibodies: HO-1 antibody (GeneTex GTX101147), goat polyclonal anti-VEGF (cat. no. sc-1836, Santa Cruz Biotechnology), and rabbit polyclonal anti-β-tubulin (cat n.sc-9104, Santa Cruz Biotechnology) and β-actin antibody (GeneTex GTX109639).
(§5) The secondary antibodies goat antirabbit (Odyssey, #926-32211; Odyssey #926-68021) and donkey antigoat IRDye 800CW (cat #926-32214; Li-Cor Biosciences) were used at 1:7000. Blots were scanned, and densitometric analysis was performed with the Odyssey Infrared Imaging System. Values were normalized to β-actin and to β-tubulin.

HO-1 [3] = experiment: HO-1 protein expression by Western blot, DU145; format: cell-based; conditions: DU145, 10 μM, 48 h
Procedure: as §4, §5

HO-1 [4] = experiment: HO-1 inhibition of known inhibitors (values printed in Figure 1); format: biochemical; conditions: 0.27 vs 4.0 μM

SMILES | HO-1 vs HO-2 selectivity (in words) (HO-1 [1]) | fold more potent than parent compound 4 (HO-1) (HO-1 [1]) | IC50 (HO-1 [1]; rat spleen microsomal fraction, mean of triplicate ± SD) [nM] | SI (HO-2/HO-1) (HO-1 [1]; ratio of HO-2 and HO-1 IC50) | IC50 (HO-2) [nM] | cell viability reduction (in words) (A172 cells) | HO-1 protein expression (in words) (HO-1 [2]) | HO-1 protein expression (in words) (HO-1 [3]) | melting point [°C] | fold higher inhibitory potency toward HO-1 with respect to monophenyl analogue 2 (HO-1 [4]) [fold]
CN(C(=O)Cn1ccnc1)C(c1ccccc1)c1ccccc1 [7i, N-Benzhydryl-2-(1H-imidazol-1-yl)-N-methylacetamide] | superimposable HO-1 and HO-2 IC50 values | about 32 fold | 900 ± 70 | 1 | 900 ± 50 | remarkable reduction of cell viability | enhanced its levels | reduced HO-1 protein expression | 121 to 126 | 
O=C(CC(c1ccccc1)c1ccccc1)Cn1ccnc1 [compound 3] |  |  |  |  |  |  |  |  |  | 15
